Entries after “also recorded” stand apart in the source; their conditions may differ.
Columns and labels:
BALB/c mice = assay: Immunogenicity of epitope peptides in BALB/c mice (IFN-gamma ELISPOT on splenocytes); assay type: in vivo
Description: IFA-conjugated peptide or IFA only were injected s.c. into BALB/c mice on day 0 and 7. On day 14, splenocytes of vaccinated mice were harvested and used as responder cells. 1×10^4 RLmale1 cells pulsed corresponding peptide (solid square), or no peptide (open square) were used as stimulator cells for IFN-gamma ELISPOT assay. Vaccination using Foxp3-252_h (A) and Foxp3-252_m (B) were performed into five mice (M1-M5) and IFA without any peptide injection were performed into three mice (N1-N3) as control in each assay.
For priming the peptide-specific CTLs, immunization was given using 100 mcl vaccine mixture, which contains 50 mcl HLA-A24 restricted peptide and 50 mcl IFA per mouse. The vaccine was injected s.c. into the right flank of mice for the first immunization on day 0 and in the left flank for the second on the day 7. On day 14, splenocytes from vaccinated mice were used as the responder cells, and RLmale1 cells pulsed with or without peptides were used as the stimulator cells for IFN-gamma ELISPOT assay.
To evaluate the immunogenicity of Foxp3-9-252 peptide for BALB/c mice, immunization with human Foxp3-9-252 peptide (Foxp3-252_h; KLSAMQAHL)(SEQ ID NO: 17) and mouse Foxp3-9-252 peptide (Foxp3-252_m; KLGAMQAHL) (SEQ ID NO: 89) were performed, respectively. After second injection of peptide, peptide specific CTL activity was determined by IFN-gamma ELISPOT assay (FIG. 5).

4T1 breast cancer cells = assay: In vivo antitumor effects of vaccination, 4T1 tumor; parameters: species or system BALB/c mice; details: 4T1 s.c. day 0, vaccination day 3 and 10, compared with control mice, FIG. 6
Description: 1×10^5 4T1 breast cancer cell lines were injected into BALB/c mice on day 0. IFA-conjugated with Foxp3-252_h (-open circle-), Foxp3-252_m (-solid square-), no peptide (-solid triangle-) was injected on day 3 and 10. As control of normal tumor growth, non-vaccinated mice (-x-) were also prepared in this assay.
4T1 cells (1×10^5 per mouse) were injected s.c. into the right flank of BALB/c mice on day 0. Vaccination was done on days 3 and 10 using hFoxp3-252 (KLSAMQAHL: SEQ ID NO: 17) or mFoxp3-252 (KLGAMQAHL: SEQ ID NO: […]) IFA-conjugated peptides.
To examine the antitumor effects with peptide vaccination targeted Foxp3, in vivo therapeutic setting was attempted by using 4T1 tumor cells and BALB/c mice. The 4T1 breast cancer cells were injected s.c. into BALB/c mice on day 0, and then vaccination was done on these mice 3 and 10 days after the tumor challenge.

KLSAMQAHL (peptide vaccine) [SEQ ID NO 17]
mice with peptide specific CTL response (BALB/c mice; IFA-conjugated peptide s.c. day 0 and 7, splenocytes day 14, RLmale1 stimulator cells, FIG. 5): three of five
induction of epitope specific CTLs in vivo (BALB/c mice; vaccination of BALB/c mice, discussion, listed as hFoxp3-252): could induce epitope specific CTLs in vivo; also recorded: superior to mFoxp3-252 peptide
tumor growth / antitumor effect (4T1 breast cancer cells; listed as Foxp3-252_h): tumor growth apparently reduced; also recorded: Significant difference of tumor growth suppression
tumor growth / antitumor effect (4T1 breast cancer cells; listed as hFoxp3-252): obviously anti-tumor effects; also recorded: superior to mFoxp3-252 peptide

Source: US8563516B2, “Foxp3 peptide vaccine” (OncoTherapy Science, Inc., priority 2007, dated 2013)
